# Reference: US12161695B2 (priority 2018, dated 2024)
# “Also recorded” adds a separate entry of the source. Read-outs that look alike come from different tables or passages of the source. Where no end group is shown, it is not given here.
# Tests used:
# [1] = cited from earlier work
# [2] = tested on: insulin granule exocytosis in human islet cells; experiment: insulin granule exocytosis imaging by TIRF microscopy; type: cell-based
# Experimental: The islets were dissociated into single cells in 0.0025% trypsin in cell dissociation buffer (Hank's based) for 3-5 minutes. Cells were washed once in serum-containing medium, plated onto 22-mm polylysine-coated coverslips and allowed to settle overnight. Adenovirus particles adNPY-Venus (Tsuboi et al., 2006) or adNPY-mCherry (Meur et al., 2010) was added and cells were imaged 24-36 hours later. Cells selected for experiments expressed the granule marker and appeared healthy. Cells were imaged in a standard solution containing (mM): 138 NaCl, 5.6 KCl, 1.2 MgCl2, 2.6 CaCl2, 20 D-glucose, 5 HEPES (pH 7.4 with NaOH) (Barg et al., 2002; Gandasi and Barg, 2014). For depolarization dependent exocytosis experiments, glucose was 10 mM and the solution supplemented with 2 μM forskolin and 200 μM diazoxide, a K^+-ATP-channel opener that prevents glucose-dependent depolarization. Exocytosis was then evoked with high K^+ solution (75 mM KCl equimolarly replacing NaCl). High K^+ was applied by computer-timed local pressure ejection through a glass pipette similar to those used for patch clamp. All experiments were carried out at ˜32° C. Cells were imaged using a custom-built lens-type total internal reflection (TIRF) microscope based on an Axiovert 135 microscope with a 100×/1.45 objective (Carl Zeiss). Excitation was from a DPSS laser at 491 (Cobolt, Stockholm, Sweden), controlled with an acousto-optical tunable filter (AA-Opto, France) and using dichroic Di01-R488/561 (Semrock) and emission filter FF01-523/610 (Semrock). Scaling was 160 nm per pixel and exposure time 100 ms per frame at 10 frames/s. Exocytosis events were found by eye. The moment of exocytosis was defined as the first significant change (2 standard deviations) from the pre-exocytosis baseline. This definition applied to both types of events, with or without preceding flash. The decay time was then defined as the time from exocytosis until the signal reached less than one third of the amplitude of the event. Traces were read out as DF, defined as average fluorescence in a 0.5 μm circle minus the average fluorescence in a surrounding annulus of 0.8 μm. The point of exocytosis was calculated by fitting the granule fluorescence during exocytosis with a discontinuous function (Eq 1), which assumes constant fluorescence before fusion, an inverted exponential decay just after fusion, and finally exponential decay during content release:
# where t is time; c is average fluorescence in a 0.48 μm wide circle at the granule site; A1, A2 and A3 are the fluorescence values at the plateaus; τ1 and τ2 are the decay constants for the fluorescence increase after fusion and content release; and t1 and t2 are the times of fusion and release, respectively.
# human islets = experiment: glucose-stimulated insulin secretion in human islets; type: cell-based
# Experimental: The incubation medium was subsequently collected, the islets sonicated briefly (1-2 periods of 10 s) in acidic ethanol and frozen overnight. Samples from the medium and the islets were appropriately diluted and analyzed in duplicates for insulin using an immunoassay kit from Mesoscale Discovery (Rockville, MD, USA). Secretion was normalized to insulin content and expressed in relation to that at 20 mM glucose. In some experiments, the islets were placed in a closed 10-μL Teflon tubing perfusion. The chamber was perfused with buffer at a rate of 60 μL/min (AutoMate Scientific, Berkeley, CA). […] Three fractions were collected for each condition and analyzed for insulin. The results are presented as one data point per condition, which represents the average of the last two fractions at that condition. The first fraction was excluded since it was influenced by the preceding condition.
# iGABAARI = experiment: whole-cell patch-clamp single-channel currents in β cells of intact human islets, iGABAARI; type: cell-based; conditions: for GABA-activated single-channel conductance: 100 nM GABA; for reduction of Ka for GABA activation in T2D donors: T2D vs ND donors
# Experimental: (§1) Human islets were generously provided by the Nordic Network for Clinical Islet Transplantation, supported by EXODIAB and the Juvenile Diabetes Research Foundation. All procedures were approved by the regional ethics committee in Uppsala and informed consent obtained by appropriate measures from donors or their relatives. […] The islets were then hand-picked and cultured free-floating in CMRL 1066 (ICN Biomedicals, Costa Mesa, CA, USA) supplemented with 10 mM HEPES, 2 mM L-glutamine, 50 jig/ml gentamicin, 0.25 jig/ml fungizone (GIBCO, BRL, Gaithersburg, MD, USA), 20 jig/ml ciprofloxacin (Bayer Healthcare, Leverkusen, Germany), and 10 mM nicotinamide at 37° C. in humidified atmosphere containing 5% CO2, vol/vol and used in the experiments from second day of incubation up to 10 days of culturing.
# (§2) The whole-cell patch-clamp configuration was obtained on intact islets using the blind patch-clamp technique (Hamill et al., 1981; Jin et al., 2011; Neher and Sakmann, 1976) and single-channel currents were recorded at room temperature (20-22° C.) or at 34° C. The single intact islet was held by the holding pipette and approached by the recording pipette from the other side (see FIG. 1a). The holding and recording pipettes were made from borosilicate glass. During experiments, the pancreatic islets were perfused with the extracellular solution (mM): 137 NaCl, 5.6 KCl, 2.6 CaCl2, 1.2 MgCl2, 10 HEPES and 20 glucose (pH 7.4 using NaOH) at the rate of 3 mL/min. The intracellular solution consisted of (mM): 135 CsCl, 30 CsOH, 1 MgCl2, 10 EGTA, 5 HEPES and 3 Mg-ATP (pH 7.2 with HCl). Drugs were purchased from Sigma-Aldrich (Steinheim, Germany) or Ascent Scientific (Bristol, UK). Pentobarbital, propofol, GLP-1 and the GABAAR antagonist SR95531 were dissolved in the extracellular solution. Diazepam, zolpidem and the GABAAR antagonist picrotoxin stock solutions were made in dimethyl sulfoxide (DMSO) and then dissolved in the extracellular solution. […] Recordings were done using an Axopatch 200B amplifier, filtered at 2 kHz, digitized on-line at 10 kHz using an analog-to-digital converter and Clampex 10.5 (Molecular Devices, CA, USA) software. The access resistance was monitored and if it changed by more than 25%, the recording was rejected. The single-channel parameters (amplitude, frequency/opening rate, conductance, open probability Po, mean current Imean and mean open time To) were analyzed by Channel3 (Nicholas Laver, Derek Laver, the University of Newcastle, Australia) and Clampfit 10.5 (Molecular Devices, USA). We used a simplified version of a model, previously established by Jones and Westbrook (Jones and Westbrook, 1995) to describe the activation of GABAA receptors (see FIG. 2a model scheme). Simulations of opening rate and mean open time were generated from this theoretical model using the ‘Q-matrix’ method of Colquhoun and Hawkes (Colquhoun and Hawkes, 1981, 1982). We accounted for the effects of missed events due to filtering using the ‘effective rate constant’ method of Blatz and Magleby (Blatz and Magleby, 1986) incorporating an event dead-time of 0.1 ms.
# [3] = tested on: iGABAARs in human pancreatic islet β cells; type: cell-based
# Experimental: as §1, §2
# iGABAARII = experiment: whole-cell patch-clamp single-channel currents in β cells of intact human islets, iGABAARII; type: cell-based
# Experimental: as §1, §2
# [4] = 20 mM glucose, with GABA, one T2D donor
# [5] = activated by interstitial GABA, room temperature
# [6] = diazepam 1 μM, propofol 10 μM, pentobarbital 100 μM, zolpidem 200 nM
# [7] = diazepam 1 μM, propofol 10 μM, pentobarbital 100 μM, zolpidem 100 or 200 nM
# [8] = GLP-1 application and following washout, n=5
compound,measurement,setting,value
"NCCCC(=O)O [GABA, gamma-aminobutyric acid]",time to maximum blood serum level of GABA,[1]; after administration in connection with ingestion of food,approximately 45 minutes
same,time after which blood serum levels of GABA markedly decrease,[1]; from the administration of GABA,approximately 90 minutes
same,exocytosis,"[2]; 20 mM glucose >10 min, GABA present, ND donors",~5 granules/min
same,exocytosis events per area and time,"[2]; 20 mM glucose >10 min, GABA present, two ND donors, n=6",0.095±0.01 10^−3·tm^−2·s^−1
same,exocytosis,[2]; [4],~1 granules/min
same,exocytosis events per area and time,[2]; [4],0.019±0.008 10^−3·tm^−2·s^−1
same,exocytosis for an average-sized cell,"[2]; 75 mM K+ depolarization, 100 nM GABA",~150 granules/min
same,exocytosis events per area and time,"[2]; 75 mM K+ depolarization, 100 nM GABA, n=7",2.5±0.6 10^−3·tm^−2·s^−1
same,loss of NPY-Venus from individual granules (decay constant),"[2]; 75 mM K+ depolarization, presence of GABA",0.86 ± 0.09 s
same,insulin secretion normalized to the 20 mM glucose response,"human islets; 100 nM GABA, 10 ND donors",1.6±0.2
same,increase of insulin secretion,"human islets; 100 nM GABA, 10 ND donors, average",approximately 60%
same,insulin secretion normalized to the 20 mM glucose response,"human islets; GABA, islets from three ND donors",0.7±0.01
same,GABA-activated single-channel conductance,iGABAARI; islets from ND donors,41±3 pS
same,GABA-activated single-channel conductance,iGABAARI; islets from T2D donors,55±5 pS
same,GABA concentration at maximal rate (frequency) of channel openings,iGABAARI; ND donors,100 nM
same,reduction of Ka for GABA activation in T2D donors,iGABAARI; 34° C.,~3 fold
same,reduction of Ka for GABA activation in T2D donors,iGABAARI; RT,6 fold
same,cord conductance,iGABAARI; [5],37 pS
same,GABA concentration above which receptors are desensitized and stop working,[3],exceeding 1000 nM
same,optimal GABA concentrations for active iGABAARs,[3],100 nM to submicromolar
same,effect on mean current (Imean),"[3]; 100 nM GABA, Vp=−70 mV, 34° C.",significantly (P<0.05) enhanced
same,effect on open probability (Po),"[3]; 100 nM GABA, Vp=−70 mV, 34° C.",significantly (P<0.05) enhanced
same,GABA concentration at which GABA-activated Cl− currents were evoked,[3]; GABA applied 1 to 10^4 nM,> 10 nM
same,effect on mean open times To,[3]; islets from ND and T2D donors,did not affect
same,effect on rate (frequency) of channel openings,[3]; islets from ND and T2D donors,increased
same,GABA concentration at which channels start to desensitize,[3]; kinetic model,about 1 μM
same,GABA concentration at peak opening rate,"iGABAARII; ND donors, 34° C.",1 µM
same,increase of Ka on raising the temperature to 34° C.,"iGABAARII; ND donors, 34° C. vs RT",23 fold
same,GABA concentration at peak opening rate,"iGABAARII; ND donors, room temperature",0.1 µM
same,reduction of Ka for GABA activation in T2D donors,"iGABAARII; T2D vs ND donors, 34° C.",300 fold
same,cord conductance,iGABAARII; [5],76 pS
Br.COc1ccc(-c2ccc(=N)n(CCCC(=O)O)n2)cc1 [SR95531],inhibition of iGABAAR (GABA-activated) currents,[3],inhibited
CN1C(=O)CN=C(c2ccccc2)c2cc(Cl)ccc21 [diazepam],effect on mean single-channel current (Imean),[3]; [6],significantly increased
same,effect on opening frequency of iGABAARs,[3]; [6],significantly increased
same,modulation of iGABAAR-mediated single-channel currents,[3]; [7],enhanced
"CCCC(C)C1(CC)C(=O)NC(=O)NC1=O (stereo not shown) [pentobarbital, 5-ethyl-5-(1-methylbutyl)-barbiturate]",effect on mean single-channel current (Imean),[3]; [6],significantly increased
same,effect on opening frequency of iGABAARs,[3]; [6],significantly increased
same,modulation of iGABAAR-mediated single-channel currents,[3]; [7],enhanced
CC(C)c1cccc(C(C)C)c1O [propofol],effect on mean single-channel current (Imean),[3],significantly increased
same,effect on opening frequency of iGABAARs,[3],significantly increased
same,modulation of iGABAAR-mediated single-channel currents,[3],enhanced
Cc1ccc(-c2nc3ccc(C)cn3c2CC(=O)N(C)C)cc1 [zolpidem],effect on mean single-channel current (Imean),[3]; [6],not
same,effect on opening frequency of iGABAARs,[3]; [6],not
same,modulation of iGABAAR-mediated single-channel currents,[3]; [7],did not modulate and not
"GLP-1: metabolic, gastrointestinal peptide hormone secreted by L-cells in the gut; enhances insulin secretion (HAEGTFTSDVSSYLEGQAAKEFIAWLVKGR; ends and bridges not checked; UniProt P01275 98-127, looked up) [reference compound]",effect on opening frequency of iGABAARI channels,"iGABAARI; GLP-1 50 pM, n=6",significantly increased
same,effect on single-channel conductance,iGABAARI; [8],did not significantly change
same,opening frequency / current enhancement after GLP-1 washout,iGABAARI; post GLP-1 vs before GLP-1 application,"remained, albeit at a reduced level; also recorded: remained significantly higher"
same,time β-cells remember the GLP-1 activation after GLP-1 is no longer in circulation,[3]; GABA signalling stays elevated in absence of GLP-1,up to 30 minutes
same,effect on iGABAAR-mediated single-channel currents,[3]; GLP-1 50 pM in the presence of GABA 10 nM,potentiated
same,effect on single-channel conductance,iGABAARII; [8],did not significantly change
picrotoxin [reference compound],effect on the GABA-induced change of insulin secretion,"human islets; picrotoxin added with GABA, ND donors",reversed
same,inhibition of iGABAAR (GABA-activated) currents,[3]; antagonist 100 μM where stated,inhibited
